From the NIST ThermoML archive (doi:10.1016/j.jct.2005.12.007) come the findings set out here.

Numbers after ± are expanded uncertainties.

For this data set the following is noted: 298.15 K, 101.33 kPa, Liquid; for viscosity: Capillary tube (Ostwald / Ubbelohde) method; for mass density: Pycnometric method; for speed of sound: Sing-around technique in a fixed-path interferometer.

Broadly, the viscosity is the internal friction of a fluid under shear. One may read the mass density as mass per unit of volume. What is called speed of sound is how fast a sound wave travels through the sample. Turning to `CCCCN` [1-butanamine], the viscosity is recorded as 0.486 ± 0.007 mPa·s, the mass density turned out to be 733.3 ± 1 kg/m3 and the speed of sound is given as 1249.7 ± 2.2 m/s.
In the same order, the values of `CCCCNCCCC` [dibutylamine] are 0.821 ± 0.008 mPa·s, 757.53 ± 0.74 kg/m3 and 1243.4 ± 1.4 m/s.
In the same order, the values of `CCCCN(CCCC)CCCC` [tributylamine] are 1.258 ± 0.012 mPa·s, 773.56 ± 0.76 kg/m3 and 1245.3 ± 1.4 m/s.
